# In patent US10463632B2, “Method for treating a neurovascular complication of diabetes mellitus” (KING SAUD UNIVERSITY, priority 2016, dated 2019):
# Assays:
# Assay type in all cases: in vivo, Sprague Dawley rats
# [1] = test system: reactive oxygen species (ROS); assay: Reactive Oxygen Species (ROS) measurement in retinal tissue homogenates (DCF fluorescence); settings: retinas of diabetic animals treated with thymoquinone; FIG. 2
# Experimental: (§1) Healthy Sprague Dawley rats (150-200 g) were used for the trials. Animals were issued from Central Animal House Facility of the College of Pharmacy, King Saud University and were kept in standard plastic animal cages in groups of 6 animals each with 12 hours light and dark cycle at 25±2° C. The rats were fed on standard rat chow and provided water ad libitum. The animals were acclimatized to laboratory conditions for a week prior to experiments. Diabetes was induced in overnight fasted rats by administration of Streptozotocin (STZ) at dose of 55 mg/kg intraperitoneally in citric acid buffer (pH 4.5). After one hour of STZ administration, the animals were allowed to feed ad libitum. The animals were kept under observation and fasting blood glucose levels were estimated before 72 hours of STZ treatment. […] Relevant biochemical parameters including serum creatinine, uric acid, alanine aminotransferase (ALT), aspartate aminotransferase (AST), alkaline phosphatase and bilirubin were assessed using colorimetric methods.
# Reactive Oxygen Species (ROS) generation was measured in retinal tissue homogenates using a 2′,7′-dichlorofluorescein-diacetate (DCHFDA) as is known in the art. […] Fluorescence was measured using a SpectraMax Gemini-XPS every 15 min for 1 hour with excitation and emission wavelengths of 488 nm and 525 nm, respectively.
# [2] = test system: nerve growth factor receptor (NGFR); assay: Western blot of retinal NGFR expression in diabetic rats; settings: diabetic rat retinas, thymoquinone 2 mg/kg i.p. alternate days, three weeks; FIG. 1C
# Experimental: as §1, with “libitum.” for “libitum. The animals were kept under observation and fasting blood glucose levels were estimated before 72 hours of STZ treatment.”, “methods. […] After incubations with secondary antibodies, membranes were washed four times with TBS-T (5 min each) and the immunoreactivity of bands was visualized on a high-performance chemiluminescence machine by using enhanced chemiluminescence plus Luminol and quantified by densitometric analysis using image processing and analysis in GeneTools. As a control, the blots were stripped and detected with a mouse monoclonal anti-β-actin antibody (1:2000). […]” for “methods.”
# [3] = test system: Streptozotocin (STZ)-induced diabetic rats; assay: Blood glucose concentration in STZ-induced diabetic rats with thymoquinone administration; settings: TQ 2 mg/Kg intraperitoneally on alternate days
# Experimental: (§2) Healthy Sprague Dawley rats (150-200 g) were used for the trials. Animals were issued from Central Animal House Facility of the College of Pharmacy, King Saud University and were kept in standard plastic animal cages in groups of 6 animals each with 12 hours light and dark cycle at 25±2° C. The rats were fed on standard rat chow and provided water ad libitum. The animals were acclimatized to laboratory conditions for a week prior to experiments. Diabetes was induced in overnight fasted rats by administration of Streptozotocin (STZ) at dose of 55 mg/kg intraperitoneally in citric acid buffer (pH 4.5). After one hour of STZ administration, the animals were allowed to feed ad libitum. The animals were kept under observation and fasting blood glucose levels were estimated […] 72 hours of STZ treatment. Animals showing blood glucose levels >350 mg/dl were considered as diabetic and were used for further trials. Diabetic rats were divided into two groups (10 rats per group) at random. Group I served as diabetic control. Group II were administered thymoquinone (2 mg/kg intraperitoneally) in alternate days for three weeks. Healthy rats were also kept as normal controls. Relevant biochemical parameters including serum creatinine, uric acid, alanine aminotransferase (ALT), aspartate aminotransferase (AST), alkaline phosphatase and bilirubin were assessed using colorimetric methods.
# [4] = test system: tyrosine hydroxylase (TH); assay: Western blot of retinal tyrosine hydroxylase expression in diabetic rats; settings: diabetic rat retinas, thymoquinone 2 mg/kg i.p. alternate days, three weeks; FIG. 1B
# Experimental: as §1, with “libitum.” for “libitum. The animals were kept under observation and fasting blood glucose levels were estimated before 72 hours of STZ treatment.”, “methods. […] After incubations with secondary antibodies, membranes were washed four times with TBS-T (5 min each) and the immunoreactivity of bands was visualized on a high-performance chemiluminescence machine by using enhanced chemiluminescence plus Luminol and quantified by densitometric analysis using image processing and analysis in GeneTools. As a control, the blots were stripped and detected with a mouse monoclonal anti-β-actin antibody (1:2000). […]” for “methods.”
# [5] = test system: Blood-Retinal Barrier in STZ-Induced Diabetic Rats; assay: Measurement of Blood Retinal Barrier (BRB) breakdown with FITC-conjugated dextran; settings: thymoquinone 2 mg/kg on alternate days, compared with diabetic retinas, FIG. 3
# Experimental: as §1, with “libitum.” for “libitum. The animals were kept under observation and fasting blood glucose levels were estimated before 72 hours of STZ treatment.”, “methods. Rat retinas were analyzed for Blood Retinal Barrier (BRB) breakdown after 3 weeks of thymoquinone dosing using fluorescein isothiocyanate (FITC)-conjugated dextran as previously described in the prior art. […] Fluorescence was measured using a Spectra Max Gemini-XPS with excitation and emission wavelengths of 485 nm and 538 nm, respectively, with PBS as a blank. Blood retinal barrier breakdown was calculated using the following equation (1) with the results being expressed in μL g^−1 hr^−1. […]” for “methods.”
# [6] = test system: brain derived neurotrophic factor (BDNF); assay: Western blot of retinal BDNF expression in diabetic rats; settings: diabetic rat retinas, thymoquinone 2 mg/kg i.p. alternate days, three weeks; FIG. 1A
# Experimental: as §1, with “libitum.” for “libitum. The animals were kept under observation and fasting blood glucose levels were estimated before 72 hours of STZ treatment.”, “methods. […] After incubations with secondary antibodies, membranes were washed four times with TBS-T (5 min each) and the immunoreactivity of bands was visualized on a high-performance chemiluminescence machine by using enhanced chemiluminescence plus Luminol and quantified by densitometric analysis using image processing and analysis in GeneTools. As a control, the blots were stripped and detected with a mouse monoclonal anti-β-actin antibody (1:2000). […]” for “methods.”
# [7] = test system: Streptozotocin (STZ)-induced diabetic rats; assay: Kidney and liver function tests (colorimetric serum biochemistry) in STZ-induced diabetic rats
# Experimental: as §2
# [8] = test system: cleaved caspase-3; assay: Western blot of retinal cleaved caspase-3 in diabetic rats; settings: diabetic rat retinas, thymoquinone 2 mg/kg i.p. alternate days, three weeks; FIG. 1D
# Experimental: as §1, with “libitum.” for “libitum. The animals were kept under observation and fasting blood glucose levels were estimated before 72 hours of STZ treatment.”, “methods. […] After incubations with secondary antibodies, membranes were washed four times with TBS-T (5 min each) and the immunoreactivity of bands was visualized on a high-performance chemiluminescence machine by using enhanced chemiluminescence plus Luminol and quantified by densitometric analysis using image processing and analysis in GeneTools. As a control, the blots were stripped and detected with a mouse monoclonal anti-β-actin antibody (1:2000). […]” for “methods.”
# [9] = diabetic rats treated with TQ 2 mg/kg i.p. on alternate days for three weeks
compound,measurement,setting,value
"CC1=CC(=O)C(C(C)C)=CC1=O [thymoquinone, 2-Isopropyl-5-methylbenzo-1,4-quinone]",ROS generation (DCF retinal levels),[1],significantly attenuated
same,retinal NGFR expression (diabetes-induced increase of about 75%),[2],normalized
same,Glucose Concentration,[3]; after 7 days of TQ treatment,580.58 ± 2.40 mg/dL
same,Glucose Concentration,[3]; after 14 days of TQ treatment,559.55 ± 1.29 mg/dL
same,Glucose Concentration,[3]; after 21 days of TQ treatment,495.10 ± 5.71 mg/dL
same,retinal TH levels (diabetes-induced decrease of about 32%),[4],normalized
same,effect of diabetes on BRB breakdown (retinal vascular permeability),[5],significantly attenuated
same,retinal BDNF expression (diabetes-induced down-regulation of about 65%),[6],normalized
same,kidney and liver function tests versus untreated diabetic animals,[7]; diabetic rats that received thymoquinone,more normal
same,ALKALINE Phos,[7]; [9],179.08 ± 4.51 U/l
same,ALT,[7]; [9],134.43 ± 5.21 U/l
same,AST,[7]; [9],138.48 ± 2.94 U/l
same,Bilirubin,[7]; [9],3.23 ± 0.04 mg/dL
same,Creatinine,[7]; [9],0.62 ± 0.05 mg/dL
same,Uric acid,[7]; [9],4.99 ± 0.07 mg/dL
same,retinal cleaved caspase-3 (diabetes-induced up-regulation of about 52%),[8],normalized
